Source: ChEMBL document CHEMBL5291721, “A preclinical secondary pharmacology resource illuminates target-adverse drug reaction associations of marketed drugs” (Nat Commun, 2023)

Legend:
Adenosine receptor A1 = target: T1, Adenosine receptor A1 (Homo sapiens, UniProt P30542)
T1 sequence (P30542 whole entry): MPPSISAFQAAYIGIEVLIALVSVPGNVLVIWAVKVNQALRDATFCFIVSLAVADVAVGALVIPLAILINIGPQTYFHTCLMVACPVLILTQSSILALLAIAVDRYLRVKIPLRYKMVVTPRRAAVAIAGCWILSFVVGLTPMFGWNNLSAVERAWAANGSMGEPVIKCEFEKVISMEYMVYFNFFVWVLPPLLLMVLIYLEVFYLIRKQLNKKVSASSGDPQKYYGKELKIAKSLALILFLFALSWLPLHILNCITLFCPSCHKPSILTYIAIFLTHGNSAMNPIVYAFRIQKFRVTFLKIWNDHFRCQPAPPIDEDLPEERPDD

Adenosine receptor A2a = Adenosine receptor A2a (Homo sapiens, UniProt P29274)
[1] = target: T2, Alpha-2C adrenergic receptor (Homo sapiens, UniProt P18825); type: functional
T2 sequence (P18825 whole entry): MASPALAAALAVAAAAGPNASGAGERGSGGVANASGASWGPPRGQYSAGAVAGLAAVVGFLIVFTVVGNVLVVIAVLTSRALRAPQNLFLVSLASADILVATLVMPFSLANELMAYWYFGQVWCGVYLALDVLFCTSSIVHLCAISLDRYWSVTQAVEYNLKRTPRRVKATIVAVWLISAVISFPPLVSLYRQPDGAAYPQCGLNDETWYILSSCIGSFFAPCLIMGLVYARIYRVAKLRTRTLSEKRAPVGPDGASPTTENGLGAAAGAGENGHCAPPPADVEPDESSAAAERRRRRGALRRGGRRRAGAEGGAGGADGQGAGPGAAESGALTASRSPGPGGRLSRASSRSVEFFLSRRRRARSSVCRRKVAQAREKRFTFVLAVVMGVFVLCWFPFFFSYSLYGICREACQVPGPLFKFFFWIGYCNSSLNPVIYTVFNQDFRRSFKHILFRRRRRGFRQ

[2] = target: Beta-2 adrenergic receptor (Homo sapiens, UniProt P07550)
[3] = target: T3, Type-1 angiotensin II receptor (Homo sapiens, UniProt P30556)
T3 sequence (P30556 whole entry): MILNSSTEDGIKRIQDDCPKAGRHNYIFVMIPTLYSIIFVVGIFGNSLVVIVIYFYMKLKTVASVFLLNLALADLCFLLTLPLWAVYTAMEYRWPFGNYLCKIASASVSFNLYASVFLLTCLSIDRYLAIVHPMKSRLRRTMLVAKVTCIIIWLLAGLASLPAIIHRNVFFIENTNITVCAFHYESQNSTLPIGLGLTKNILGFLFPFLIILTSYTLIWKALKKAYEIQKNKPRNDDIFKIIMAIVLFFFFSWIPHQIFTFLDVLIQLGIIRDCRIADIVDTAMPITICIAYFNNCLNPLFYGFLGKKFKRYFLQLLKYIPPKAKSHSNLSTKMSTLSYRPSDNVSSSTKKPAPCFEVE

[4] = target: T4, Muscarinic acetylcholine receptor M2 (Homo sapiens, UniProt P08172); type: functional, cell-based
T4 sequence (P08172 whole entry): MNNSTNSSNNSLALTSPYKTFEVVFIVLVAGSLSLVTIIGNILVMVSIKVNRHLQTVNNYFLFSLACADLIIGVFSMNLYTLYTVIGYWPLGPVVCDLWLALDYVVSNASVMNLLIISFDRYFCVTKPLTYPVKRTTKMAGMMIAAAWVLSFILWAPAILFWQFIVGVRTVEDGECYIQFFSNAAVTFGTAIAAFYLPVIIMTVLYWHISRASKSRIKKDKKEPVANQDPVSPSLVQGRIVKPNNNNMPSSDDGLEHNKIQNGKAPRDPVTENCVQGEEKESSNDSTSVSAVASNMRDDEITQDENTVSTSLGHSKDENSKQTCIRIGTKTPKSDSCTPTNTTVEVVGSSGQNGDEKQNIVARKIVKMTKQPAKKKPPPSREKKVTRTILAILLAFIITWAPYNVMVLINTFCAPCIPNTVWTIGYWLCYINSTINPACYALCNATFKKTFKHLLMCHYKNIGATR

[5] = target: Neuronal acetylcholine receptor subunit alpha-4 (Homo sapiens, UniProt P43681)
[6] = target: Delta-type opioid receptor (Homo sapiens, UniProt P41143)
[7] = target: Kappa-type opioid receptor (Homo sapiens, UniProt P41145)
Thromboxane A2 receptor = target: T5, Thromboxane A2 receptor (Homo sapiens, UniProt P21731)
T5 sequence (P21731 whole entry): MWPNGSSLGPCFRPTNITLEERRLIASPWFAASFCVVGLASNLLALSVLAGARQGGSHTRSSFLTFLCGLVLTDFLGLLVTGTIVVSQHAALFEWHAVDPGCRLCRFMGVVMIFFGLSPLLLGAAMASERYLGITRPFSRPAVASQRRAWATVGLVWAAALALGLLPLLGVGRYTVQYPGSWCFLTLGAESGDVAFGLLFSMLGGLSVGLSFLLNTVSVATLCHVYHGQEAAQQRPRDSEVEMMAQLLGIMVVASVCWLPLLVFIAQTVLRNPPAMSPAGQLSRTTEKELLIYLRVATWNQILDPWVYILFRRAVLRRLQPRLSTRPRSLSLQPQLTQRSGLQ

Histamine H3 receptor = Histamine H3 receptor (Homo sapiens, UniProt Q9Y5N1)
Also: assay procedure not described here.

Histamine H3 receptor, sequence (Q9Y5N1 whole entry): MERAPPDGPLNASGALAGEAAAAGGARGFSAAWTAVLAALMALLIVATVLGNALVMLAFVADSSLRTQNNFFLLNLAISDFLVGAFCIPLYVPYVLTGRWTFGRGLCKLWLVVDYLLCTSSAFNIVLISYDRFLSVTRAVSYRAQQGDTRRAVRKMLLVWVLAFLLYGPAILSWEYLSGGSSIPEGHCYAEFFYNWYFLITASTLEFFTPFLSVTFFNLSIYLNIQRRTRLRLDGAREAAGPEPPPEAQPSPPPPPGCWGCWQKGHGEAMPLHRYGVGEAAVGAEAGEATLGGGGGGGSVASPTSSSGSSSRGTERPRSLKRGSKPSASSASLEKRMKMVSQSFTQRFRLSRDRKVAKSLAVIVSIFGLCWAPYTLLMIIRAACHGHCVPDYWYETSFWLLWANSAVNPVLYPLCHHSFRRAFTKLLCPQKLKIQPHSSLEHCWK
Kappa-type opioid receptor, sequence (P41145 whole entry): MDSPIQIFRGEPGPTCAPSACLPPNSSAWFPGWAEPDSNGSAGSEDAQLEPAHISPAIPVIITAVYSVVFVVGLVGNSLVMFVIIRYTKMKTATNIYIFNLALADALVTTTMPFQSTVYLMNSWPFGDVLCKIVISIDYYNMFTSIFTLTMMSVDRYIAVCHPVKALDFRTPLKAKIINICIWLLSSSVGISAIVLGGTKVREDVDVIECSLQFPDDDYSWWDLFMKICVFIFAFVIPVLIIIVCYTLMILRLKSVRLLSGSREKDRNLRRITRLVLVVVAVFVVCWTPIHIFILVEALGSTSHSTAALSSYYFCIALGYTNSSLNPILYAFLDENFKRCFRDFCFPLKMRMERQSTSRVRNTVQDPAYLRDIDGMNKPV
Neuronal acetylcholine receptor subunit alpha-4, sequence (P43681 whole entry): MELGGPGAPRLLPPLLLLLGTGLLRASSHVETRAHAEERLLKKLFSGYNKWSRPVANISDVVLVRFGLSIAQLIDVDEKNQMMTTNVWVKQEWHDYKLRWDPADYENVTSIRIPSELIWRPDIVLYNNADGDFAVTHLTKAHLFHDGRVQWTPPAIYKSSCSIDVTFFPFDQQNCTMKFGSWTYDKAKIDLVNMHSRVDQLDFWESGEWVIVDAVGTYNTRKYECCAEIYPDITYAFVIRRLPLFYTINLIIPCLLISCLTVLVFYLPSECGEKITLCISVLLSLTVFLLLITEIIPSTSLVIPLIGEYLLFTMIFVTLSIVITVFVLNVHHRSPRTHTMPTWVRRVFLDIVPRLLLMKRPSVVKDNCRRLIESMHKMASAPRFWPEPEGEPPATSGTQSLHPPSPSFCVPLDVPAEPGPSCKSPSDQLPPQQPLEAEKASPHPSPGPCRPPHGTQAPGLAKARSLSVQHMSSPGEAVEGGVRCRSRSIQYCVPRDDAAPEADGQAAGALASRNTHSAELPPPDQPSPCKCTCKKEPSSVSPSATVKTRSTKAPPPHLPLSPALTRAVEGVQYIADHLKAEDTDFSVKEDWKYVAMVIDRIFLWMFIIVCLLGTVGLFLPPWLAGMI
Beta-2 adrenergic receptor, sequence (P07550 whole entry): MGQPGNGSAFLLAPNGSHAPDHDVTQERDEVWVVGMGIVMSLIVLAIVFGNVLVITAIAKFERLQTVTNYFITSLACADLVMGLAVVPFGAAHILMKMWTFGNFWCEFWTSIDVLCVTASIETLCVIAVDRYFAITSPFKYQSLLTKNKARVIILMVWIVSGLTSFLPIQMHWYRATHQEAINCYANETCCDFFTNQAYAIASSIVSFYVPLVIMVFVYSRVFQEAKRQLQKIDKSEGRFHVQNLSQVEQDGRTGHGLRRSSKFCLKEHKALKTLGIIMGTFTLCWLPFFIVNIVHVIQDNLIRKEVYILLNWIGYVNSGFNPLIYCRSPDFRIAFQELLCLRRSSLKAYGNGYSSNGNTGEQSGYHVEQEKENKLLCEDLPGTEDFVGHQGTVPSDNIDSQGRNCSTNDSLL
Adenosine receptor A2a, sequence (P29274 whole entry): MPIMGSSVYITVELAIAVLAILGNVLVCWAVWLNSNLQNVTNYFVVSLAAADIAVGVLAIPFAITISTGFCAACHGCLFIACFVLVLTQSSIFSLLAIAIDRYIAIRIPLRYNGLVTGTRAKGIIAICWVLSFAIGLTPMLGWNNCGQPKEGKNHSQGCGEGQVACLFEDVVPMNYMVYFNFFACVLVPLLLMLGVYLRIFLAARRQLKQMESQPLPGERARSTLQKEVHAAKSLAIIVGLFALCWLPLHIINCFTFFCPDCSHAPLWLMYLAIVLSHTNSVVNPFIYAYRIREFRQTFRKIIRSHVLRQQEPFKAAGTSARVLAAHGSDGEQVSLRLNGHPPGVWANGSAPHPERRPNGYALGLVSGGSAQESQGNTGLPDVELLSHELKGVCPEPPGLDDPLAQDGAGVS
Delta-type opioid receptor, sequence (P41143 whole entry): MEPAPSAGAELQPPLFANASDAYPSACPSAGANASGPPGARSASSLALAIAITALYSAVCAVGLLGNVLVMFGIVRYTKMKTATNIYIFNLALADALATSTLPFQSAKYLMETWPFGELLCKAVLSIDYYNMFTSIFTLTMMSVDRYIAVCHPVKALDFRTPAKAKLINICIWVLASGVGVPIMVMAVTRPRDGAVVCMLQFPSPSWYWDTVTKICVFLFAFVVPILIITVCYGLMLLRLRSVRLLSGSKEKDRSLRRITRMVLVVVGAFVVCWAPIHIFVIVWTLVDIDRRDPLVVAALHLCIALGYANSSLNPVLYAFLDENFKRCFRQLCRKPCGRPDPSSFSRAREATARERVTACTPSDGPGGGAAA

Row | SMILES | AC50 (Adenosine receptor A1) [µM] | AC50 (Adenosine receptor A2a) [µM] | AC50 [1] [µM] | AC50 [2] [µM] | AC50 [3] [µM] | AC50 [4] [µM] | AC50 [5] [µM] | AC50 [6] [µM] | AC50 [7] [µM] | AC50 (Thromboxane A2 receptor) [µM] | AC50 (Histamine H3 receptor) [µM]
1 | CCOc1nc2cccc(C(=O)O)c2n1Cc1ccc(-c2ccccc2-c2nnn[nH]2)cc1 | > 30 | > 30 | > 30 | > 10 | 0.0005 | > 30 | > 10 | > 30 | > 10 | > 10 | > 30
2 | CCOc1cc([C@@H](CS(C)(=O)=O)N2C(=O)c3cccc(NC(C)=O)c3C2=O)ccc1OC | > 30 | > 30 | > 30 |  | > 30 | > 30 | > 30 | > 30 |  |  | > 30
3 | CC(=O)Nc1ccc(CC(=O)O)cc1 [ACTARIT] | > 30 | > 30 | > 30 | > 30 | > 30 | > 30 | > 30 | > 30 | > 30 | > 30 | > 30
4 | CC(C(=O)O)c1ccc2oc(-c3ccc(Cl)cc3)nc2c1 (stereo unspecified) [BENOXAPROFEN] | > 30 | > 30 | > 30 | > 30 | > 30 | > 30 | > 30 | > 30 | > 30 | > 30 | > 30
5 | CC1(C)S[C@@H]2[C@H](NC(=O)C(C(=O)O)c3ccccc3)C(=O)N2[C@H]1C(=O)O (stereo partly specified) [CARBENICILLIN] | > 30 | > 30 | > 30 |  | > 30 | > 30 | > 30 | > 30 | > 30 |  | > 30
6 | Cc1nnc(SCC2=C(C(=O)O)N3C(=O)[C@@H](NC(=O)Cn4cnnn4)[C@H]3SC2)s1 [CEFAZOLIN] | > 300 | > 300 | > 300 |  | > 300 | > 300 | > 300 | > 300 | > 30 |  | > 300
7 | CC=CC1=C(C(=O)O)N2C(=O)[C@@H](NC(=O)[C@H](N)c3ccc(O)cc3)[C@H]2SC1 [CEFPROZIL] | > 30 | > 30 | > 30 | > 30 | > 30 | > 30 | > 30 | > 30 | > 30 | > 30 | > 30
8 | CC(C)(O/N=C(\C(=O)N[C@@H]1C(=O)N2C(C(=O)[O-])=C(C[n+]3ccccc3)CS[C@H]12)c1csc(N)n1)C(=O)O [CEFTAZIDIME] | > 300 | > 300 | > 300 |  | > 300 | > 300 | > 300 | > 300 | > 30 |  | > 300
9 | CCCNC(=O)NS(=O)(=O)c1ccc(Cl)cc1 [CHLORPROPAMIDE] | > 30 | > 30 | > 10 | > 10 | > 30 | > 10 | > 10 | > 30 | > 10 | > 30 | > 10
10 | Cc1cc(C2CCCCC2)n(O)c(=O)c1 [CICLOPIROX] |  | > 30 | > 30 |  |  | > 30 | > 30 |  |  |  | 
11 | Clc1ccc(Cn2c(CN3CCCC3)nc3ccccc32)cc1 [CLEMIZOLE] | > 30 | > 30 | > 30 |  | > 30 | > 10 | > 10 | > 30 |  |  | > 30
12 | CCC(=O)O[C@]1(C(=O)CCl)[C@@H](C)C[C@H]2[C@@H]3CCC4=CC(=O)C=C[C@]4(C)[C@@]3(F)[C@@H](O)C[C@@]21C [CLOBETASOL PROPIONATE] | > 30 | > 30 | > 30 |  | > 30 | > 30 |  | > 30 | > 30 |  | > 30
13 | CC(C)Cc1ccc([C@H](C)C(=O)O)cc1 [DEXIBUPROFEN] | > 30 | > 30 | > 30 |  | > 30 | > 30 | > 30 | > 30 |  |  | > 30
14 | CNC[C@H](O)c1ccc(O)c(O)c1 [EPINEPHRINE] | > 30 | > 30 |  |  | > 30 | > 30 | > 30 | > 30 |  |  | > 30
15 | Cc1onc(-c2c(F)cccc2Cl)c1C(=O)N[C@@H]1C(=O)N2[C@@H]1SC(C)(C)[C@@H]2C(=O)O [FLOXACILLIN] | > 30 | > 30 | > 30 |  | > 30 | > 30 | > 30 | > 30 |  |  | > 30
16 | CNC(=C[N+](=O)[O-])NCCSCc1csc(CN(C)C)n1 [NIZATIDINE] | > 10 | > 10 | > 10 | > 10 | > 10 | > 10 | > 10 | > 30 | > 10 | > 10 | 
17 | CN1Cc2c(N)cccc2C(c2ccccc2)C1 (stereo unspecified) [NOMIFENSINE] | > 30 | > 30 | > 30 |  | > 30 | > 30 | > 30 | > 30 | > 30 | > 30 | > 30
18 | CC(CN1c2ccccc2Sc2ccccc21)N(C)C (stereo unspecified) [PROMETHAZINE] | > 30 | > 30 | 3 | > 10 | > 30 | 0.322 | > 10 | > 30 |  | > 30 | > 10
19 | S=P(N1CC1)(N1CC1)N1CC1 [THIOTEPA] | > 30 | > 30 | 4.4 |  | > 30 |  | > 30 | > 30 |  |  | > 30
20 | CC(C)C[C@H](NC(=O)[C@@H](O)[C@H](N)Cc1ccccc1)C(=O)O [UBENIMEX] |  | > 30 | > 30 |  |  | > 30 | > 30 | > 30 | > 30 | > 30 | 
21 | COc1cc(C(=O)NS(=O)(=O)c2ccccc2C)ccc1Cc1cn(C)c2ccc(NC(=O)OC3CCCC3)cc12 [ZAFIRLUKAST] | > 30 | > 30 |  | > 10 | > 10 |  | > 10 | > 30 | 6.32 | > 10 | > 10
